The values that follow come from patent US10874743B2, “IRAK degraders and uses thereof” (Kymera Therapeutics, Inc., priority 2017, dated 2020).

Assay [1] deals with T1, IRAK4 (Homo sapiens, UniProt Q9NWZ3).
T1 sequence (Q9NWZ3 1-460): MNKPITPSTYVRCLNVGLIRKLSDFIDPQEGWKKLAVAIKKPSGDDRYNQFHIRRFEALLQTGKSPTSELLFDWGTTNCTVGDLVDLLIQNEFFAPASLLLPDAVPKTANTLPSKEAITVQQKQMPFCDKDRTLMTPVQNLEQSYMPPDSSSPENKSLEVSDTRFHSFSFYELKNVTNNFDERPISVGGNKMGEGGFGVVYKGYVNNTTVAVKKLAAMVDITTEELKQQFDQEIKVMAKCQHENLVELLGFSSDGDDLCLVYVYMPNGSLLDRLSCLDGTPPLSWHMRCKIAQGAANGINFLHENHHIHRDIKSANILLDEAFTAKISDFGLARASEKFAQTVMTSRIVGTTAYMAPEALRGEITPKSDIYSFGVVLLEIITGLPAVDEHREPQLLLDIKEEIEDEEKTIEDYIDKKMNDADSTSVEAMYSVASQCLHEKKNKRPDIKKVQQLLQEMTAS
Put plainly: OCI-LY-10 degradation assay (western blot, % IRAK4 degraded after 4 hours). In kind it is cell-based. Also on record: endogenous in cells; host or cells: OCI-LY10. The settings on record: OCI-LY10 cells, 4 hours; for OCI-LY10 % IRAK4 Degradation (0.01 uM): 0.01 uM compound; for OCI-LY10 % IRAK4 Degradation (0.1 uM): 0.1 uM compound; for OCI-LY10 % IRAK4 Degradation (1 uM): 1 uM compound. The method, boiled down:
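IRAK4 loss after 4 h at 37° C was scored A (>50%), B (>20-50%) or C (<20%) from infrared western blots of RIPA lysates, 20-25 μg protein per lane. Compound was applied at 0.003-10 μM final to OCI-LY10 cells cultured in RPMI-1640 with 20% FBS and 55 μM 2-ME.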

In assay [2] the target is T1, IRAK4. Put plainly: OCI-LY-10 MSD assay for IRAK4 DC50. In kind it is cell-based. Also on record: endogenous in cells; host or cells: OCI-LY10. The following applies: OCI-LY10 cells, 4 hr incubation, concentration required to degrade 50% of protein. The procedure:
A MSD assay was run to determine the concentration of compound required to degrade 50% of protein (DC50).
Day 1 • Compounds were reconstituted to 10 mM in stock solutions. The stock solutions were diluted to 5 mM and 45 μL of each dilution was transferred to a 384 pp-plate. A 3 fold, 8-point serial dilution was performed by transferring 15 μL of compound into 30 μL DMSO using Janus. • 20 nL of each compounds were added into each well of a 96-well plate (Corning3799). • OCI-Ly10 cells were seeded into the 96-well plate at 3.0*10e^5 cells/100 μL/well. • The cell plate was shaken at 720 rpm for 5 min and incubated for 4 hr. • The 100 μL of cells were transferred into the 96-PCR plate and spun down at high speed for 5 mins. • The supernatant was discarded and 100 μL of RIPA lysis buffer with proteinase inhibitors was added per well. The plate was then sealed and shaken at 600 rpm and 4° C. for about 20 min. • The plate was then spun down at high speed (about 3200 g) for 30 min and then frozen in a −80° C. fridge. • A bare MSD plate (L15XA-3) was coated with 2 μg/mL of capture antibody (mouse Anti-IRAK4 antibody [2H9], ab119942) in PBS to 40 μL/well and incubated overnight at 4° C.
Day 2 • The MSD coated plate was washed 3× (150 μL/well) with 1×TBST (CST #9997S). • The MSD plate was then blocked with 150 μL of blocking buffer [3% Blocker A (MSD, R93BA-4) in TBST]/well and shaken for 1 hr at R^† and 600 rpm. • The MSD plate was washed 3× (150 μL/well) with 1×TBST. The sample RIPA lysates were then added to the MSD plate (50 μL/well) and shaken for 1 hr at R^† and 600 rpm. • The MSD plate was washed 3× (150 μL/well) with 1×TBST and the primary detection antibody (Rabbit Anti-IRAK4 antibody [Y279], ab32511) was added to a final concentration of 1 μg/ml with 25 μL/well. The plate was then shaken for 1 hr at RT and 600 rpm. • The MSD plate was washed 3× (150 μL/well) with 1×TBST and the secondary detection antibody, SULFO-TAG anti-species antibody (Anti Rabbit Antibody (R32AB-5) MSD, R32AB-1) was added to a volume of 25 μL/well at a final concentration of 1 jag/ml. The plate was then shaken for 1 hr at RT and 600 rpm. • The MSD plate was then washed 3× (150 μL/well) with 1×TBST. • lx MSD reading buffer was then added (150 μL/well) and the plate was diluted with 4× water. (MSD, R92TC-2) • The MSD instrument was then read.
Data Analysis • The remaining activity was calculated following the formula below:
Calculate • The DC50 was calculated by fitting the Curve using Xlfit (v5.3.1.3), equation 201: Y=Bottom+(Top−Bottom)/(1+10^((Log IC50−X)*HillSlope))
OCI-LY-10 DC50 results. The letter codes for IRAK4 DC50 indicate the concentration of compound required to degrade 50% of protein: A (<0.05 μM), B (0.05-0.1 μM), C (0.1-0.5 μM), D (0.5-1.0 μM), and E (>1.0 μM).

Usually DC50 stands for the concentration giving 50% degradation. Read a high DC50 as a less potent degrader.

Turning to `NC(=O)c1nn(-c2ccc(C(=O)NCC3CCCCN3CCOCCNc3cccc4c3C(=O)N(C3CCC(=O)NC3=O)C4=O)cc2)cc1NC(=O)c1coc(-c2ccnc(NCC(F)(F)F)c2)n1` (centres unmarked) [I-219], at IRAK4 [1], the “OCI-LY10 % IRAK4 Degradation (0.01 uM)” value was “A (>50% degradation)”, the “OCI-LY10 % IRAK4 Degradation (0.1 uM)” value is “A (>50% degradation)” and the “OCI-LY10 % IRAK4 Degradation (1 uM)” value is “A (>50% degradation)”. For the same compound, on IRAK4 [2], the DC50 was below 0.05 µM.
Consider `CN(CCOCCOCCCc1cccc2c1C(=O)N(C1CCC(=O)NC1=O)C2=O)C(=O)c1ccc(-n2cc(NC(=O)c3coc(-c4ccnc(NCC5CC5)c4)n3)c(C(N)=O)n2)cc1` (centres unmarked) [I-224], for which, at IRAK4 [1], the “OCI-LY10 % IRAK4 Degradation (0.01 uM)” value was “B (>20-50% degradation)”, the “OCI-LY10 % IRAK4 Degradation (0.1 uM)” value was “A (>50% degradation)” and the “OCI-LY10 % IRAK4 Degradation (1 uM)” value was “A (>50% degradation)”. Besides, the DC50 at IRAK4 [2] is below 0.05 µM.
As for `CN(CCOCCOCCCc1cccc2c1C(=O)N(C1CCC(=O)NC1=O)C2=O)C(=O)c1ccc(-n2cc(NC(=O)c3coc(-c4ccnc(NCC5CC5)c4)n3)c(C(F)F)n2)cc1` (centres unmarked) [I-225], on IRAK4 [1], the “OCI-LY10 % IRAK4 Degradation (0.01 uM)” value was “C (<20% degradation)”, the “OCI-LY10 % IRAK4 Degradation (0.1 uM)” value was “A (>50% degradation)” and the “OCI-LY10 % IRAK4 Degradation (1 uM)” value was “A (>50% degradation)”. This compound also registered a DC50 at IRAK4 [2] below 0.05 µM.
For the compound `CN(CCOCCOCCCc1ccc2c(c1)C(=O)N(C1CCC(=O)NC1=O)C2=O)C(=O)c1ccc(-n2cc(NC(=O)c3coc(-c4ccncc4)n3)c(C(N)=O)n2)cc1` (centres unmarked) [I-227], at IRAK4 [1], the “OCI-LY10 % IRAK4 Degradation (0.01 uM)” value is “B (>20-50% degradation)”, the “OCI-LY10 % IRAK4 Degradation (0.1 uM)” value was “A (>50% degradation)” and the “OCI-LY10 % IRAK4 Degradation (1 uM)” value is recorded as “A (>50% degradation)”. Besides, the DC50 on IRAK4 [2] was below 0.05 µM.
In turn, `Cn1c(=O)n(C2CCC(=O)NC2=O)c2ccc(CCCCCCC(=O)N3CCN(C4CCC(Nc5ncnn6ccc(C7CCOCC7)c56)CC4)CC3)cc21` (centres unmarked) [I-438] came in with a DC50 at IRAK4 [2] above 1 µM.
Same read-out and setting: the figure for `Cn1c(=O)n(C2CCC(=O)NC2=O)c2cccc(CCCOCCOCCOCCOCC(=O)N[C@H]3CC[C@H](Nc4ncnc5[nH]cc(C6CCOCC6)c45)CC3)c21` (some centres unmarked) [I-440, 2-[2-[2-[2-[3-[1-(2,6-Dioxo-3-piperidyl)-3-methyl-2-oxo-benzimidazol-4-yl]propoxy]ethoxy]ethoxy]ethoxy]-N-[4-[(5-tetrahydropyran-4-yl-7H-pyrrolo[2,3-d]pyrimidin-4-yl)amino]cyclohexyl]acetamide] is above 1 µM; for `Cn1c(=O)n(C2CCC(=O)NC2=O)c2ccc(CCCCOCCCCNCc3ccc(-n4cc(NC(=O)c5cnn6ccc(N7CCNCC7)nc56)c(C(F)F)n4)cc3)cc21` (centres unmarked) [I-441, N-[3-(difluoromethyl)-1-[4-[[4-[4-[1-(2,6-dioxo-3-piperidyl)-3-methyl-2-oxo-benzimidazol-5-yl]butoxy]butylamino]methyl]phenyl]pyrazol-4-yl]-5-piperazin-1-yl-pyrazolo[1,5-a]pyrimidine-3-carboxamide] it is above 1 µM.
`Cn1c(=O)n(C2CCC(=O)NC2=O)c2cccc(CCCOCCOCCOCCOCCN[C@H]3CC[C@H](Nc4ncnc5[nH]cc(C6CCOCC6)c45)CC3)c21` (some centres unmarked) [I-442, 3-[3-Methyl-2-oxo-4-[3-[2-[2-[2-[2-[[4-[(5-tetrahydropyran-4-yl-7H-pyrrolo[2,3-d]pyrimidin-4-yl)amino]cyclohexyl]amino]ethoxy]ethoxy]ethoxy]ethoxy]propyl]benzimidazol-1-yl]piperidine-2,6-dione] registered a DC50 on IRAK4 [2] above 1 µM.
`Cn1c(=O)n(C2CCC(=O)NC2=O)c2cccc(CCCOCCOCCOCCOCC(=O)N3CCN(C4CCC(Nc5ncnc6[nH]cc(C7CCOCC7)c56)CC4)CC3)c21` (centres unmarked) [I-444, 3-[3-Methyl-2-oxo-4-[3-[2-[2-[2-[2-oxo-2-[4-[4-[(5-tetrahydropyran-4-yl-7H-pyrrolo[2,3-d]pyrimidin-4-yl)amino]cyclohexyl]piperazin-1-yl]ethoxy]ethoxy]ethoxy]ethoxy]propyl]benzimidazol-1-yl]piperidine-2,6-dione]: at IRAK4 [2], the DC50 was in the range of 0.05 to 0.1 µM.
On the same count and under the same terms, the figure for `Cn1c(=O)n(C2CCC(=O)NC2=O)c2ccc(CCCCOCCCCNC(=O)c3ccc(-n4cc(NC(=O)c5cnn6ccc(N7CCNCC7)nc56)c(C(F)F)n4)cc3)cc21` (centres unmarked) [I-445, N-[3-(difluoromethyl)-1-[4-[4-[4-[1-(2,6-dioxo-3-piperidyl)-3-methyl-2-oxo-benzimidazol-5-yl]butoxylbutyl]carbamoyl]phenyl]pyrazol-4-yl]-5-piperazin-1-yl-pyrazolo[1,5-a]pyrimidine-3-carboxamide] is 0.05 to 0.1 µM; for `Cn1c(=O)n(C2CCC(=O)NC2=O)c2cccc(CCCOCCOCCNCc3ccc(-n4cc(NC(=O)c5cnn6ccc(N7CCNCC7)nc56)c(C(F)F)n4)cc3)c21` (centres unmarked) [I-446, N-[3-(difluoromethyl)-1-[4-[[2-[2-[3-[1-(2,6-dioxo-3-piperidyl)-3-methyl-2-oxo-benzimidazol-4-yl]propoxy]ethoxy]ethylamino]methyl]phenyl]pyrazol-4-yl]-5-piperazin-1-yl-pyrazolo[1,5-a]pyrimidine-3-carboxamide] it is 0.1 to 0.5 µM.
Same read-out and setting: in the case of `Cn1c(=O)n(C2CCC(=O)NC2=O)c2ccc(CCCOCCOCCOCCOCC(=O)N3CCN(C4CCC(Nc5ncnc6[nH]cc(C7CCOCC7)c56)CC4)CC3)cc21` (centres unmarked) [I-447, 3-[3-Methyl-2-oxo-5-[3-[2-[2-[2-[2-oxo-2-[4-[4-[(5-tetrahydropyran-4-yl-7H-pyrrolo[2,3-d]pyrimidin-4-yl)amino]cyclohexyl]piperazin-1-yl]ethoxy]ethoxy]ethoxy]ethoxy]propyl]benzimidazol-1-yl]piperidine-2,6-dione] it was 0.05 to 0.1 µM; in that of `CN[C@@H](C)C(=O)N[C@H](C(=O)N1CCC[C@H]1c1nc(C(=O)c2cccc(OCCOCCOCCOCCNCc3ccc(-n4cc(NC(=O)c5coc(-c6ccnc(NCC7CC7)c6)n5)c(C(F)F)n4)cc3)c2)cs1)C1CCCCC1` [I-554], above 1 µM.
In turn, `CN[C@@H](C)C(=O)N[C@H](C(=O)N1Cc2cc(OCCOCCOCCOCCNCc3ccc(-n4cc(NC(=O)c5coc(-c6ccnc(NCC7CC7)c6)n5)c(C(F)F)n4)cc3)ccc2C[C@H]1C(=O)N[C@@H]1CCCc2ccccc21)C(C)(C)C` [I-681, 2-[2-(Cyclopropylmethylamino)-4-pyridyl]-N-[3-(difluoromethyl)-1-[4-[[2-[2-[2-[2-[[(3S)-2-[(2S)-3,3-dimethyl-2-[[(2S)-2-(methylamino)propanoyl]amino]butanoyl]-3-[[(1R)-tetralin-1-yl]carbamoyl]-3,4-dihydro-1H-isoquinolin-7-yl]oxy]ethoxy]ethoxy]ethoxy]ethylamino]methyl]phenyl]pyrazol-4-yl]oxazole-4-carboxamide] registered a DC50 at IRAK4 [2] of 0.5 to 1 µM.
